Where “and” joins values, the source holds several entries; their conditions need not be identical. Identical values can stand only once.
Test system: PDE4
Test: Inhibition of PDE4 (enzyme purified from U937 human monocytic cells)
Type: biochemical
Settings: 1 μM cAMP plus 10 nM [3H]-cAMP, 45 min at 30° C.
Description: Phosphodiesterase 4 enzyme was purified from U937 human monocytic cells by gel filtration chromatography, and phosphodiesterase reactions were carried out as previously described. See, e.g., Muller et al., Bioorg. Med. Chem. Lett., 1998, 8(19): 2669-2674. Briefly, reactions were carried out in 96-well deep-well plates in 50 mM Tris HCl pH 7.5, 5 mM MgCl2, 1 μM cyclic adenosine monophosphate (cAMP), plus 10 nM [^3H]-cAMP for 45 min at 30° C. The reactions were terminated by boiling, treated with 1 mg/ml snake venom, and separated using AG-1X8 ion exchange resin (BioRad). Reactions consumed less than 15% of available substrate. […] Compound B inhibited PDE4 with an IC50 of 100 nM.

SMILES | IC50
CCOc1cc([C@@H](CS(C)(=O)=O)N2C(=O)c3cccc(NC(C)=O)c3C2=O)ccc1OC [Compound A1, (S)—N-(2-(1-(3-ethoxy-4-methoxyphenyl)-2-(methylsulfonyl)ethyl)-1,3-dioxoisoindolin-4-yl)acetamide] | 73.5 nM and ~74 nM
CCOc1cc([C@@H](CS(C)(=O)=O)N2Cc3cccc(NC(=O)C4CC4)c3C2=O)ccc1OC [Compound B, (S)—N-(2-(1-(3-ethoxy-4-methoxyphenyl)-2-(methylsulfonyl)ethyl)-3-oxoisoindolin-4-yl)cyclopropanecarboxamide] | 100 nM and ~100 nM
